{"source": "patent US9771369B2", "about": "“Compounds and methods for kinase modulation, and indications therefor” (Plexxikon Inc., priority 2014, dated 2017)", "data": [{"target": "c-Kit kinase (Homo sapiens (Human), UniProt P10721)", "sequence (P10721 26-976)": "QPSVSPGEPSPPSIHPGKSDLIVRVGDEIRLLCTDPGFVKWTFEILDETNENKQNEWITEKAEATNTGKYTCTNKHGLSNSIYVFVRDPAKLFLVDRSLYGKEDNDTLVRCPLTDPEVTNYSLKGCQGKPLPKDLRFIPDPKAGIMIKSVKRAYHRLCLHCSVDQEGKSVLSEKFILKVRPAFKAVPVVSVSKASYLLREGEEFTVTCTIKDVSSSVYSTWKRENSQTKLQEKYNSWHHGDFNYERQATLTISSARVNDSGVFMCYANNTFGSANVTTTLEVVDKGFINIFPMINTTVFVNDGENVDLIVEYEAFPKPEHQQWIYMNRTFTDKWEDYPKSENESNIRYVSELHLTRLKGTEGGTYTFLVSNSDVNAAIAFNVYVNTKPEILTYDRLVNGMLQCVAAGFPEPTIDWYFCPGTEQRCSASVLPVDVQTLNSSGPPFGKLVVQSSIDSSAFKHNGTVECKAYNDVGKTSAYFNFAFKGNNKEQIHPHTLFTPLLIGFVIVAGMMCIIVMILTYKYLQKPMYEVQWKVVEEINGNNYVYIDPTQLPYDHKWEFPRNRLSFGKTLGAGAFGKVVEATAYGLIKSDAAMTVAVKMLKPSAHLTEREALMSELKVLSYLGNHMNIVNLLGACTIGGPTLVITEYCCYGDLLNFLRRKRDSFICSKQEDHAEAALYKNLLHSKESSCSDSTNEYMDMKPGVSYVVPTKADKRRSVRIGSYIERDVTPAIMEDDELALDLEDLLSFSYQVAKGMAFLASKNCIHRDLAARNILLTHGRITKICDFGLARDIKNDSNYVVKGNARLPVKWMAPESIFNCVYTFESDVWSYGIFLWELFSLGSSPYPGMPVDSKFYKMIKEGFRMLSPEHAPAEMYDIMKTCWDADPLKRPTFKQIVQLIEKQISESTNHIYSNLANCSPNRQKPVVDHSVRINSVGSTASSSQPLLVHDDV", "assay": "c-Kit biochemical assay (AlphaScreen kinase activity)", "procedure,_shortened": "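IC50 values come from 8-point, 1:3 compound titrations measuring inhibition of peptide phosphorylation by c-Kit (commercial or His-tagged E. coli-expressed) over 1 h at room temperature, read by AlphaScreen PY30/streptavidin beads. Low-ATP version: 10 μM ATP, 100 nM biotin-(E4Y)3; high-ATP version: 100 μM ATP, 30 nM biotin-(E4Y)10.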", "units": {"IC50": "µM"}, "values": [{"smiles": "Cc1nc(C2CCN(c3ncnc4[nH]c(-c5ccc(F)cc5)cc34)CC2)[nH]c1-c1ccc(F)cc1", "note": "[P-3006, 6-(4-fluorophenyl)-4-[4-[5-(4-fluorophenyl)-4-methyl-1H-imidazol-2-yl]-1-piperidyl]-7H-pyrrolo[2,3-d]pyrimidine]", "IC50": "0.0001 to 1"}, {"smiles": "Cc1ccc(-c2[nH]c(C3CCN(c4ncnc5[nH]c(-c6ccc(C#N)cc6)cc45)CC3)nc2C)cc1", "note": "[P-3089, 4-[4-[4-[4-methyl-5-(p-tolyl)-1H-imidazol-2-yl]-1-piperidyl]-7H-pyrrolo[2,3-d]pyrimidin-6-yl]benzonitrile]", "IC50": "0.0001 to 1"}, {"smiles": "Cc1ccc(-c2[nH]c(C3CCN(c4ncnc5[nH]c(-c6ccc(C#N)cc6)cc45)CC3)nc2C)s1", "note": "[P-3090, 4-[4-[4-[4-methyl-5-(5-methyl-2-thienyl)-1H-imidazol-2-yl]-1-piperidyl]-7H-pyrrolo[2,3-d]pyrimidin-6-yl]benzonitrile]", "IC50": "0.0001 to 1"}, {"smiles": "COc1cc(-c2cc3c(N4CCC(c5nc(C)c(-c6ccc(OC(C)C)cc6)[nH]5)CC4)ncnc3[nH]2)ccn1", "note": "[P-3091, 4-[4-[5-(4-isopropoxyphenyl)-4-methyl-1H-imidazol-2-yl]-1-piperidyl]-6-(2-methoxy-4-pyridyl)-7H-pyrrolo[2,3-d]pyrimidine]", "IC50": "0.0001 to 1"}, {"smiles": "Cc1nc(C2CCN(c3ncnc4[nH]c(-c5ccc(F)cc5)cc34)CC2)[nH]c1-c1ccc(OC(C)C)cc1", "note": "[P-3092, 6-(4-fluorophenyl)-4-[4-[5-(4-isopropoxyphenyl)-4-methyl-1H-imidazol-2-yl]-1-piperidyl]-7H-pyrrolo[2,3-d]pyrimidine]", "IC50": "0.0001 to 1"}, {"smiles": "Cc1nc(C2CCN(c3ncnc4[nH]c(-c5ccc(C#N)cc5)cc34)CC2)[nH]c1-c1ccc(OC(C)C)cc1", "note": "[P-3093, 4-[4-[4-[5-(4-isopropoxyphenyl)-4-methyl-1H-imidazol-2-yl]-1-piperidyl]-7H-pyrrolo[2,3-d]pyrimidin-6-yl]benzonitrile]", "IC50": "0.0001 to 1"}, {"smiles": "CCOc1cc(-c2[nH]c(C3CCN(c4ncnc5[nH]c(-c6ccc(F)cc6)cc45)CC3)nc2C)ccc1C", "note": "[P-3094, 4-[4-[5-(3-ethoxy-4-methyl-phenyl)-4-methyl-1H-imidazol-2-yl]-1-piperidyl]-6-(4-fluorophenyl)-7H-pyrrolo[2,3-d]pyrimidine]", "IC50": "0.0001 to 1"}]}]}
